From ChEMBL document CHEMBL5046279, “Discovery of a Partial Glucokinase Activator Clinical Candidate: Diethyl ((3-(3-((5-(Azetidine-1-carbonyl)pyrazin-2-yl)oxy)-5-isopropoxybenzamido)-1H-pyrazol-1-yl)methyl)phosphonate (BMS-820132)” (J Med Chem, 2022)
In brackets after ≈: the same amount, converted by molar mass.

Columns and labels:
[1] = Oral bioavailability in CD1 mouse at 5 mg/kg measured upto 24 hrs by LC-MS/MS analysis; type: ADME, organism-based; conditions: in vivo
Mus musculus [2] = assay: Anti-hyperglycemic activity in C57BL/6J DIO mouse assessed as reduction in plasma glucose level at 30 umol/kg measured after 14 days; type: functional; design: scale not given: the % may be the effect or the level left; conditions: dose 30 µM/Kg; time 14 day; at 30 µmol/kg
Mus musculus [3] = assay: Anti-hyperglycemic activity in C57BL/6J DIO mouse assessed as reduction in plasma glucose AUC at 3 umol/kg, po measured after 120 mins by OGTT; type: functional; design: scale not given: the % may be the effect or the level left; conditions: dose 3 µM/Kg, 2 h, at 3 µmol/kg
[4] = target: Voltage-gated inwardly rectifying potassium channel KCNH2 (Homo sapiens, UniProt Q12809); assay: Inhibition of hERG by patch clamp method; type: toxicity
Mus musculus [5] = assay: Anti-hyperglycemic activity in C57BL/6J DIO mouse assessed as reduction in plasma glucose level at 3 umol/kg measured at 1 hr post dose on day 1 by OGTT; type: functional; design: scale not given: the % may be the effect or the level left; conditions: dose 3 µM/Kg, at 3 µmol/kg
[6] = AUC (0 to 24 hrs) in CD1 mouse at 5 mg/kg, po measured upto 24 hrs by LC-MS/MS analysis; type: ADME, organism-based; design: route oral, dose 5 mg/kg, time <=24; conditions: in vivo
Escherichia coli [7] = assay: Mutagenicity in Escherichia coli WP2 uvrA at 5000 ug/plate in absence of S9 fraction by Ames test; type: toxicity, organism-based
Salmonella typhimurium [8] = assay: Mutagenicity in Salmonella typhimurium TA98 at 5000 ug/plate in absence of S9 fraction by Ames test; type: toxicity, organism-based; conditions: salmonella enterica subsp. enterica serovar typhimurium; dose 5000 µg
Salmonella typhimurium [9] = assay: Mutagenicity in Salmonella typhimurium TA1535 at 5000 ug/plate in absence of S9 fraction by Ames test; type: toxicity, organism-based; conditions: salmonella enterica subsp. enterica serovar typhimurium; dose 5000 µg
Salmonella typhimurium [10] = assay: Mutagenicity in Salmonella typhimurium TA1537 at 5000 ug/plate in absence of S9 fraction by Ames test; type: toxicity, organism-based; conditions: salmonella enterica subsp. enterica serovar typhimurium; dose 5000 µg
[11] = target: ATP-dependent translocase ABCB1 (Homo sapiens, UniProt P08183); assay: Inhibition of P-gp transporter (unknown origin)
[12] = AUC (0 to 24 hrs) in cynomolgus monkey at 3 mg/kg, po measured upto 24 hrs; type: ADME, organism-based, Macaca fascicularis; design: route oral, dose 3 mg/kg, time <=24; conditions: in vivo
[13] = Oral bioavailability in cynomolgus monkey at 3 mg/kg measured upto 24 hrs; type: ADME, organism-based, Macaca fascicularis; conditions: in vivo
[14] = Protein binding in human serum; type: ADME, cell-free; conditions: read-out: PB (converted)
[15] = Volume of distribution at steady state in Sprague-Dawley rat at 2.5 mg/kg, iv measured upto 24 hrs by LC-MS/MS analysis; type: ADME, organism-based; conditions: in vivo, read-out: Vdss
[16] = Volume of distribution at steady state in CD1 mouse at 2.5 mg/kg, iv measured upto 24 hrs by LC-MS/MS analysis; type: ADME, organism-based; conditions: in vivo, read-out: Vdss
Mus musculus [17] = assay: Anti-hyperglycemic activity in C57BL/6J DIO mouse assessed as reduction in plasma glucose AUC at 3 umol/kg incubated for 120 mins by OGTT; type: functional; design: scale not given: the % may be the effect or the level left; conditions: dose 3 µM/Kg, 2 h, at 3 µmol/kg
[18] = Cmax in cynomolgus monkey at 3 mg/kg, po measured upto 24 hrs; type: ADME, organism-based, Macaca fascicularis; design: route oral, dose 3 mg/kg, time <=24; conditions: in vivo
Mus musculus [19] = assay: Anti-hyperglycemic activity in C57BL/6J DIO mouse assessed as reduction in plasma glucose level at 30 umol/kg, po qd measured on day 14 by OGTT; type: functional; design: scale not given: the % may be the effect or the level left; conditions: dose 30 µM/Kg; time 24 hrs; at 30 µmol/kg
[20] = AUC (0 to 24 hrs) in Beagle dog at 3 mg/kg, iv measured upto 24 hrs; type: ADME, organism-based, Canis lupus familiaris; design: route intravenous, dose 3 mg/kg, time <=24; conditions: in vivo
[21] = Volume of distribution at steady state in Beagle dog at 3 mg/kg, iv measured upto 24 hrs; type: ADME, organism-based, Canis lupus familiaris; conditions: in vivo, read-out: Vdss
[22] = Half life in Sprague-Dawley rat at 2.5 mg/kg, po measured upto 24 hrs by LC-MS/MS analysis; type: ADME, organism-based; conditions: in vivo
[23] = Volume of distribution at steady state in cynomolgus monkey at 3 mg/kg, iv measured upto 24 hrs; type: ADME, organism-based, Macaca fascicularis; conditions: in vivo, read-out: Vdss
[24] = Cmax in CD1 mouse at 5 mg/kg, po measured upto 24 hrs by LC-MS/MS analysis; type: ADME, organism-based; design: route oral, dose 5 mg/kg, time <=24; conditions: in vivo
[25] = Aqueous solubility of the compound at pH 6.5 using crystaline form of sample; type: physicochemical
[26] = Systemic plasma clearance in Beagle dog at 3 mg/kg, iv measured upto 24 hrs; type: ADME, organism-based, Canis lupus familiaris
CHO = assay: Mutagenicity in CHO cells; type: toxicity, cell-based, Cricetulus griseus; conditions: chinese hamster
[27] = Tmax in cynomolgus monkey at 3 mg/kg, po measured upto 24 hrs; type: ADME, organism-based, Macaca fascicularis; conditions: in vivo
[28] = AUC (0 to 24 hrs) in cynomolgus monkey at 3 mg/kg, iv measured upto 24 hrs; type: ADME, organism-based, Macaca fascicularis; design: route intravenous, dose 3 mg/kg, time <=24; conditions: in vivo
[29] = Oral bioavailability in Sprague-Dawley rat at 5 mg/kg measured upto 24 hrs by LC-MS/MS analysis; type: ADME, organism-based; conditions: in vivo
Salmonella typhimurium [30] = assay: Mutagenicity in Salmonella typhimurium TA100 at 5000 ug/plate in presence of S9 fraction by Ames test; type: toxicity, organism-based; conditions: salmonella enterica subsp. enterica serovar typhimurium, dose 5000 µg
[31] = Tmax in Beagle dog at 3 mg/kg, po measured upto 24 hrs; type: ADME, organism-based, Canis lupus familiaris; conditions: in vivo
[32] = AUC (0 to 24 hrs) in CD1 mouse at 2.5 mg/kg, iv measured upto 24 hrs by LC-MS/MS analysis; type: ADME, organism-based; design: route intravenous, dose 2.5 mg/kg, time <=24; conditions: in vivo
Cytochrome P450 2C8 = target: T1, Cytochrome P450 2C8 (Homo sapiens, UniProt P10632); assay: Inhibition of CYP2C8 (unknown origin); type: ADME
T1 sequence (P10632 whole entry): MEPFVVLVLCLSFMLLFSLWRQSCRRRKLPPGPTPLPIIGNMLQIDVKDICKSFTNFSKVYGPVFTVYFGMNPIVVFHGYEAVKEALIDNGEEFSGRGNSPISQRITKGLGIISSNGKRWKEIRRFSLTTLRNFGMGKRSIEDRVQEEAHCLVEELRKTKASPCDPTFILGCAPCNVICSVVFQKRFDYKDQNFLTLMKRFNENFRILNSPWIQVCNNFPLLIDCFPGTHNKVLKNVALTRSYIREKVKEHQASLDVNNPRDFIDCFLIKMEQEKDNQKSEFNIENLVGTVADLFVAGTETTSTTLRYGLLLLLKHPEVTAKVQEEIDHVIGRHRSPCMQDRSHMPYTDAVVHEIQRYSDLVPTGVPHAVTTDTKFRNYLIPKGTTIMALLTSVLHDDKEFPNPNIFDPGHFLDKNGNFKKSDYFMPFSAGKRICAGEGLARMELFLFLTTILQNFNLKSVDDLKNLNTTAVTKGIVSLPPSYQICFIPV

[33] = Permeability of compound at pH >= 5.5 by PAMPA assay; type: ADME; conditions: read-out: permeability
[34] = Cmax in Beagle dog at 3 mg/kg, po measured upto 24 hrs; type: ADME, organism-based, Canis lupus familiaris; design: route oral, dose 3 mg/kg, time <=24; conditions: in vivo
[35] = AUC (0 to 24 hrs) in Beagle dog at 3 mg/kg, po measured upto 24 hrs; type: ADME, organism-based, Canis lupus familiaris; design: route oral, dose 3 mg/kg, time <=24; conditions: in vivo
[36] = Phototoxicity in BALB/c mouse 3T3 fibroblasts; type: toxicity, cell-based
Escherichia coli [37] = assay: Mutagenicity in Escherichia coli WP2 uvrA at 5000 ug/plate in presence of S9 fraction by Ames test; type: toxicity, organism-based; conditions: dose 5000 µg
sodium channel = assay: Inhibition of sodium channel (unknown origin) at 1 Hz at 10 uM by patch clamp assay relative to control; type: toxicity; conditions: human
[38] = Systemic plasma clearance in Sprague-Dawley rat at 2.5 mg/kg, iv measured upto 24 hrs by LC-MS/MS analysis; type: ADME, organism-based

Sequence of ATP-dependent translocase ABCB1 (P08183 whole entry): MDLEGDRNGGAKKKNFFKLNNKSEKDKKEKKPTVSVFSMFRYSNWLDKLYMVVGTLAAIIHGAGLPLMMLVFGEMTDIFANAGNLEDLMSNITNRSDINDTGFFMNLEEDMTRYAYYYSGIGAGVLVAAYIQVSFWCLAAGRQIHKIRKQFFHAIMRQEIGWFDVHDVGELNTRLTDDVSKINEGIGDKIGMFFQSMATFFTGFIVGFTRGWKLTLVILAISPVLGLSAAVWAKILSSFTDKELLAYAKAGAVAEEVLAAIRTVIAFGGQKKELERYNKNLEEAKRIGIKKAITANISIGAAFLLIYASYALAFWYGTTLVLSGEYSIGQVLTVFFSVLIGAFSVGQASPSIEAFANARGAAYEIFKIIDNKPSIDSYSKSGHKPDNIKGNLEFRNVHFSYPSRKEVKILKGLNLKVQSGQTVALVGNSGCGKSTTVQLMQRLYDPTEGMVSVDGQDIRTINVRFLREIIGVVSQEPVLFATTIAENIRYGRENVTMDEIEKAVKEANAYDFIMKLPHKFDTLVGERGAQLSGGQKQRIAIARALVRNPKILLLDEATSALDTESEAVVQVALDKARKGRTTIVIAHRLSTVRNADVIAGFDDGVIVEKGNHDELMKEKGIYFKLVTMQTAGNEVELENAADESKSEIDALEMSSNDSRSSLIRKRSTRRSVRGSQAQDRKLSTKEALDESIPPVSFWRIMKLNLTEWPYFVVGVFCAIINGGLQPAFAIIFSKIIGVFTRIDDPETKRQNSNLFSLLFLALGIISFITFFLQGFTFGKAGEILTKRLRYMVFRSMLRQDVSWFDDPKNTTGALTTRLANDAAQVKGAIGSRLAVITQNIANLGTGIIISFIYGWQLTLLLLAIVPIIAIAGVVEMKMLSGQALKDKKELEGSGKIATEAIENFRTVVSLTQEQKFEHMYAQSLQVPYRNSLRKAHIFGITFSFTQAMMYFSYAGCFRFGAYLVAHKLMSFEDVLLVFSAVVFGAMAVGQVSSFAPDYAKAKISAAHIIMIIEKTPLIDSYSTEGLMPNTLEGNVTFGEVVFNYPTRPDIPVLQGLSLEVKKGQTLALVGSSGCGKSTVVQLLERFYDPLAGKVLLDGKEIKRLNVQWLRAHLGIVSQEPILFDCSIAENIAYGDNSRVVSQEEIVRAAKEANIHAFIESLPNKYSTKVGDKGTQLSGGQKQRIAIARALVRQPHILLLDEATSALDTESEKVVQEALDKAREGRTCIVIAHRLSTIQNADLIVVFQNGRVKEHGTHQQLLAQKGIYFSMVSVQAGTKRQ
Sequence of Voltage-gated inwardly rectifying potassium channel KCNH2 (Q12809 whole entry): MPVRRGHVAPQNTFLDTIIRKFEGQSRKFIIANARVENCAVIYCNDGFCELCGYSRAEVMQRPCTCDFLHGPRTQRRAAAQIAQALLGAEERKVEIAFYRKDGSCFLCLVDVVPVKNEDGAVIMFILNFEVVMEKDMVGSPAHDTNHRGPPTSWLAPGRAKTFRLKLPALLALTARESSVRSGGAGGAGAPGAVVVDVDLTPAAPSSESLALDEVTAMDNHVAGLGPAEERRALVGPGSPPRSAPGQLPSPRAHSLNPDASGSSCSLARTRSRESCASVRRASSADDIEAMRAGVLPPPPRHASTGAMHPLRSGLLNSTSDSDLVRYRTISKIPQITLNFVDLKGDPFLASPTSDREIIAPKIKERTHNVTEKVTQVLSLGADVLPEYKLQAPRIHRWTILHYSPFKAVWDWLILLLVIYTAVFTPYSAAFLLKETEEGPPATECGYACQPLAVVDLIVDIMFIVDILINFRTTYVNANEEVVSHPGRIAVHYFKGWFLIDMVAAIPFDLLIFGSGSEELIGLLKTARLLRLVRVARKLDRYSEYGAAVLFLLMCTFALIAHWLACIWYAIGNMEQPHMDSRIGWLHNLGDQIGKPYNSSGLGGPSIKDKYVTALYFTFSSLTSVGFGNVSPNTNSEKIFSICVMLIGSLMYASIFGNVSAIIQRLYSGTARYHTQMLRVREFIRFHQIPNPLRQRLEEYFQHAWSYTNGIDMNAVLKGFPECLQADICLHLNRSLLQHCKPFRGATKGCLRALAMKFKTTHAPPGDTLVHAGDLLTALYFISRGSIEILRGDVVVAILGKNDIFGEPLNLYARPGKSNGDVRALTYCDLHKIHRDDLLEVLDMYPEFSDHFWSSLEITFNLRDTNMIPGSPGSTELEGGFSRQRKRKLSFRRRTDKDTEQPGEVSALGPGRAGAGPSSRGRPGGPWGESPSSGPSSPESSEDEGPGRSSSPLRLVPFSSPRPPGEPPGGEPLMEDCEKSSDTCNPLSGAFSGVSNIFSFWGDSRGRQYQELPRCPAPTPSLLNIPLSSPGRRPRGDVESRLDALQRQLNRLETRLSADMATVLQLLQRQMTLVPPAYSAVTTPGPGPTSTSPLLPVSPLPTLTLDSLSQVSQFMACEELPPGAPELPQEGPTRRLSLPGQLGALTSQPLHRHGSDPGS

Compound `CCOP(=O)(Cn1ccc(NC(=O)c2cc(Oc3cnc(C(=O)N4CCC4)cn3)cc(OC(C)C)c2)n1)OCC` has a bioavailability [1] of 100%, an Activity (Mus musculus [2]) of -63% and an Activity (Mus musculus [3]) of -31%. The IC50 [4] was over 80 µM, the Activity (Mus musculus [5]) was -32% and the AUC(0-t) [6] was 49.7 µM·h. For the same compound, the Activity (Escherichia coli [7]) was “Non-Toxic”, the Activity (Salmonella typhimurium [8]) was “Non-Toxic” and the Activity (Salmonella typhimurium [9]) was “Non-Toxic”. The Activity (Salmonella typhimurium [10]) was “Non-Toxic”, the IC50 [11] was 55 µM and the AUC(0-t) [12] was 0.57 µM·h. It also gave a bioavailability [13] of 15%, a fraction unbound [14] of 0.054 and a Vd [15] of 0.3 L/kg. It also gave a Vd [16] of 0.3 L/kg, an Activity (Mus musculus [17]) of -50% and a Cmax [18] of 0.38 µM. It also gave an Activity (Mus musculus [19]) of -46%, an AUC(0-t) [20] of 12.3 µM·h and a Vd [21] of 0.5 L/kg. For the same compound, the half-life [22] was 54 min, the Vd [23] was 1.1 L/kg and the Cmax [24] was 14.1 µM. The solubility [25] was 10 µg/mL (≈ 17.5 µM), the clearance [26] was 7.2 mL/min/kg and the Activity (CHO) was “Toxic”. The Tmax [27] was 78 min, the AUC(0-t) [28] was 3.8 µM·h and the bioavailability [29] was 90%. For the same compound, the Activity (Salmonella typhimurium [30]) was “Non-Toxic”, the Tmax [31] was 48 min and the AUC(0-t) [32] was 24.9 µM·h. For the same compound, the IC50 (Cytochrome P450 2C8) was 7.7 µM, the Papp [33] was over 40 ×10⁻⁶ cm/s and the Cmax [34] was 4.9 µM. The AUC(0-t) [35] was 8 µM·h, the Activity [36] was “Toxic” and the Activity (Escherichia coli [37]) was “Non-Toxic”. It also gave an inhibition at 10 µM (sodium channel) of 9% and a clearance [38] of 4.4 mL/min/kg.
